# Measured values reported in patent publication US9617266B2, “Imidazopyrimidine derivatives” (Merck Patent GmbH, priority 2013, dated 2017).
# Where a name gives a salt, the structure may show the parent alone.
# Target: GCN2 (Homo sapiens, UniProt Q9P2K8)
# Assay: GCN2 enzyme assay (TR-FRET Lanthascreen, GFP-eIF2alpha phosphorylation)
# Assay type: biochemical
# Settings: 10 μM ATP, 80 nM GFP-eIF2a substrate, 30 nM GCN2, room temperature
# Excerpt: GCN2: Assay Principle & Conditions
# This assay can quantificate the activity of the serin kinase GCN2 (general control non-derepressible-2).
# This kinase is involved in the stress metabolism of cells. It is activated upon starvation (amino acid depletion). Its natural substrate is eIF2a (eukaryotic initiation factor 2 alpha subunit), a translation factor, which gets activated (phosphorylated) by GCN2 in case of an amino acid bottleneck in the cells. This in turn leads to a halt of the protein synthesis. Inhibition of GCN2 results in stopping this mechanism: The cell can not stop protein production upon “starvation” stress.
# The assay is run in two steps: the enzymatic reaction and the detection step. In the first step GCN2 is incubated with 10 μM ATP and 80 nM of the GFP-labelled substrate elF2alpha at room temperature.
# The enzymatic reaction is stopped by addition of EDTA. The amount of phosphorylated elF2alpha is determined by TR-FRET (Lanthascreen): A complex is formed consisting of antibody and GFP labelled phospho-eIF2a, which allows a FRET upon exitation at 340 nm.
# Final Concentrations in the Enzymatic Reaction
# Sequence of GCN2 (Q9P2K8 whole entry, species assumed): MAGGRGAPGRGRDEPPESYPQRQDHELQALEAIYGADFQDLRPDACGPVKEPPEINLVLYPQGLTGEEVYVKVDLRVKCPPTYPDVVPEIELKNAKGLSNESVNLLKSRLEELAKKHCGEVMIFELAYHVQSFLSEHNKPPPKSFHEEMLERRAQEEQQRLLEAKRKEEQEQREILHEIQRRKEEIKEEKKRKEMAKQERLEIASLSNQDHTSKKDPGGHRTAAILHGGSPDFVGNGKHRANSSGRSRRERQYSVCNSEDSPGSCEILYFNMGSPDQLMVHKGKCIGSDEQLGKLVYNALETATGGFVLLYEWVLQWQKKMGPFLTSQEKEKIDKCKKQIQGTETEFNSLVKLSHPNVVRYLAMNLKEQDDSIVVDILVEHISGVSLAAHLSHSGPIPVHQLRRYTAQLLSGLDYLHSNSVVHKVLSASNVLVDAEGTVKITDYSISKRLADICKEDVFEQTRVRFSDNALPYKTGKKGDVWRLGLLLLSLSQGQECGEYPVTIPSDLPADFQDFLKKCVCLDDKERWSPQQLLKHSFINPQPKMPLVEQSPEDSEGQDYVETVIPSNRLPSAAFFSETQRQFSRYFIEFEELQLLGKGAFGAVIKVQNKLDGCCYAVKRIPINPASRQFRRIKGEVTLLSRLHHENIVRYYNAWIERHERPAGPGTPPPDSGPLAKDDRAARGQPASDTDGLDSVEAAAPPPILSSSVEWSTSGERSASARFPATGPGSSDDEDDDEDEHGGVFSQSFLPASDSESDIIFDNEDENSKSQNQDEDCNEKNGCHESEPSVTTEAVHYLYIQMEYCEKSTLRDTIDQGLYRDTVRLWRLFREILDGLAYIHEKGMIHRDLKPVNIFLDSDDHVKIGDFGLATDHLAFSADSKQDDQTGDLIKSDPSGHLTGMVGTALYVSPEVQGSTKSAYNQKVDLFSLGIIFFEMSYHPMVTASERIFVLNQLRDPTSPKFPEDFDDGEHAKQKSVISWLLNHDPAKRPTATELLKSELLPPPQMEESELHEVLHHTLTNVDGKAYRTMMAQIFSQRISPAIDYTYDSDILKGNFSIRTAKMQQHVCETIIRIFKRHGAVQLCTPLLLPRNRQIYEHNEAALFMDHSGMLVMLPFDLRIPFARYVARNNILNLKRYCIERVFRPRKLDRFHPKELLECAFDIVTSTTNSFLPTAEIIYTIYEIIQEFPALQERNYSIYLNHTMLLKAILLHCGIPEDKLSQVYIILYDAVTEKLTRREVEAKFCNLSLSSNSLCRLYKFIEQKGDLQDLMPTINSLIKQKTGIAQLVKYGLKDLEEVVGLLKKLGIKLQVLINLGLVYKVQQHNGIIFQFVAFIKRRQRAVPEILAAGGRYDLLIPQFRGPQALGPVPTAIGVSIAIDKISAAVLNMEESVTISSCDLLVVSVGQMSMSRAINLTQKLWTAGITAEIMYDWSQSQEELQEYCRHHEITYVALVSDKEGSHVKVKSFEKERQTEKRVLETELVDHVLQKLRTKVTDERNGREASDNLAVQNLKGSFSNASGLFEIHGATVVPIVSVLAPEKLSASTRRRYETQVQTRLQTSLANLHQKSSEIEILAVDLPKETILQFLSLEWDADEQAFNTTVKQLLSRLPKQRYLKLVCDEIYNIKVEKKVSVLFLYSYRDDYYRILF
row,Compound,IC50 [µM]
1,"COCCn1cc(-c2ccc(-n3cnc4cnc(N[C@H]5CC[C@H](O)C5)nc43)cc2F)cn1 (relative stereo) [Compound A29, (trans)-3-(9-{3-fluoro-4-[1-(2-methoxy-ethyl)-1H-pyrazol-4-yl]-phenyl}-9H-purin-2-ylamino)-cyclopentanol]",1 to 5
2,"CCn1cc(Nc2ncc3ncn(-c4cnn(CC)c4)c3n2)cn1 [Compound A4, N,9-bis-(1-ethyl-1H-pyrazol-4-yl)-9H-purin-2-amine]",< 1
3,"CCn1cc(-n2cnc3cnc(Nc4cnn(C5CCOCC5)c4)nc32)cn1 [Compound A5, 9-(1-ethyl-1H-pyrazol-4-yl)-N-(1-(tetrahydro-2H-pyran-4-yl)-1H-pyrazol-4-yl)-9H-purin-2-amine]",< 1
4,"CCOc1ccc(-n2cnc3cnc(Nc4cnn(CCCC5CCNCC5)c4)nc32)cc1 [Compound A11, 9-(4-ethoxyphenyl)-N-(1-(3-(piperidin-4-yl)propyl)-1H-pyrazol-4-yl)-9H-purin-2-amine hydrochloride]",< 1
5,"COCCN1CCC(n2cc(Nc3ncc4ncn(-c5ccc(OC)cc5)c4n3)cn2)CC1 [Compound A13, N-(1-(1-(2-methoxyethyl)piperidin-4-yl)-1H-pyrazol-4-yl)-9-(4-methoxyphenyl)-9H-purin-2-amine]",< 1
6,"CCOc1ccc(-n2cnc3cnc(Nc4cnn(C5CCC(N)CC5)c4)nc32)cc1 (stereo not shown) [Compound A17, N-(1-(4-aminocyclohexyl)-1H-pyrazol-4-yl)-9-(4-ethoxyphenyl)-9H-purin-2-amine hydrochloride]",< 1
7,"COc1ccc(-n2cnc3cnc(Nc4cn[nH]c4)nc32)cc1 [Compound A18, [9-(4-methoxy-phenyl)-9H-purin-2-yl]-(1H-pyrazol-4-yl)-amine]",< 1
8,"Cn1cc(Nc2ncc3ncn(-c4ccc(-c5cnn(C)c5)cc4)c3n2)cn1 [Compound A21, (1-methyl-1H-pyrazol-4-yl)-{9-[4-(1-methyl-1H-pyrazol-4-yl)-phenyl]-9H-purin-2-yl}-amine]",< 1
9,"CCn1cc(Nc2ncc3ncn(-c4ccc(C(=O)NCC(O)CO)cc4)c3n2)cn1 (stereo not shown) [Compound A22, N-(2,3-dihydroxy-propyl)-4-[2-(1-ethyl-1H-pyrazol-4-ylamino)-purin-9-yl]-benzamide]",1 to 5
10,"Cn1cc(Nc2ncc3ncn(-c4ccc(-c5cnn(C6CCNCC6)c5)cc4)c3n2)cn1 [Compound A23, (1-methyl-1H-pyrazol-4-yl)-{9-[4-(1-piperidin-4-yl-1H-pyrazol-4-yl)-phenyl]-9H-purin-2-yl}-amine]",< 1
11,"Cn1cc(Nc2ncc3nc(N)n(-c4ccc(-c5cnn(C)c5)cc4)c3n2)cn1 [Compound A24, N2-(1-methyl-1H-pyrazol-4-yl)-9-[4-(1-methyl-1H-pyrazol-4-yl)-phenyl]-9H-purine-2,8-diamine]",1 to 5
12,"Cn1cc(Nc2ncc3nc(N)n(-c4ccc(-c5cnn(C6CCNCC6)c5)cc4)c3n2)cn1 [Compound A26, N2-(1-methyl-1H-pyrazol-4-yl)-9-[4-(1-piperidin-4-yl-1H-pyrazol-4-yl)-phenyl]-9H-purine-2,8-diamine]",1 to 5
13,"CCOc1ccc(-n2cnc3cnc(N[C@@H]4CC[C@@H](C(N)=O)C4)nc32)cc1 [Compound A32, (1R,3R)-3-[9-(4-ethoxy-phenyl)-9H-purin-2-ylamino]-cyclopentanecarboxylic acid amide]",1 to 5
14,"CCOCCn1cc(-c2ccc(-n3cnc4cnc(N[C@@H]5CC[C@@H](C(N)=O)C5)nc43)cc2)cn1 [Compound A36, (1R,3R)-3-(9-{4-[1-(2-ethoxy-ethyl)-1H-pyrazol-4-yl]-phenyl}-9H-purin-2-ylamino)-cyclopentanecarboxylic acid amide]",< 1
15,"Cc1ccc2cc(-n3cnc4cnc(N[C@@H]5CC[C@@H](C(N)=O)C5)nc43)ccc2n1 [Compound A37, (1R,3R)-3-[9-(2-methyl-quinolin-6-yl)-9H-purin-2-ylamino]-cyclopentanecarboxylic acid amide]",< 1
16,"COCCn1cc(-c2ccc(-n3cnc4cnc(N[C@@H]5CCN(C(=O)CCN6CCN(C)CC6)C5)nc43)cc2)cn1 [Compound A39, 1-[(R)-3-(9-{4-[1-(2-methoxy-ethyl)-1H-pyrazol-4-yl]-phenyl}-9H-purin-2-ylamino)-pyrrolidin-1-yl]-3-(4-methyl-piperazin-1-yl)-propan-1-one]",1 to 5

# Now from value to compound:
row,IC50 [µM],Compound
1,5 to 10,"O[C@H]1CC[C@H](Nc2ncc3ncn(-c4ccc(I)c(F)c4)c3n2)C1 (relative stereo) [Compound A27, (trans)-3-[9-(3-fluoro-4-iodo-phenyl)-9H-purin-2-ylamino]-cyclopentanol]"
2,1 to 5,"Cn1cc(-c2ccc(-n3cnc4cnc(N[C@@H]5CC[C@@H](O)C5)nc43)cc2)cn1 (relative stereo) [Compound A30, (trans)-3-{9-[4-(1-Methyl-1H-pyrazol-4-yl)-phenyl]-9H-purin-2-ylamino}-cyclopentanol]"
3,< 1,"CCOc1ccc(-n2cnc3cnc(Nc4cnn(C5CCN(C)CC5)c4)nc32)cc1 [Compound A1, 9-(4-ethoxyphenyl)-N-(1-(1-methylpiperidin-4-yl)-1H-pyrazol-4-yl)-9H-purin-2-amine]"
4,< 1,"COCCOc1ccc(-n2cnc3cnc(Nc4cnn(C5CCN(C)CC5)c4)nc32)cc1 [Compound A2, 9-(4-(2-methoxyethoxy)phenyl)-N-(1-(1-methylpiperidin-4-yl)-1H-pyrazol-4-yl)-9H-purin-2-amine]"
5,< 1,"NC(=O)c1ccc(-n2cnc3cnc(Nc4cnn(C5CCOCC5)c4)nc32)cc1 [Compound A3, 4-(2-((1-(tetrahydro-2H-pyran-4-yl)-1H-pyrazol-4-yl)amino)-9H-purin-9-yl)benzamide]"
6,1 to 5,"CCOc1ccc(-n2c(C)nc3cnc(Nc4cnn(C5CCN(C)CC5)c4)nc32)cc1 [Compound A6, 9-(4-ethoxyphenyl)-8-methyl-N-(1-(1-methylpiperidin-4-yl)-1H-pyrazol-4-yl)-9H-purin-2-amine]"
7,< 1,"CCn1cc(Nc2ncc3ncn(-c4ccc5c(c4)NC(=O)C5(C)C)c3n2)cn1 [Compound A9, 6-(2-((1-ethyl-1H-pyrazol-4-yl)amino)-9H-purin-9-yl)-3,3-dimethylindolin-2-one]"
8,< 1,"CCOc1ccc(-n2cnc3cnc(Nc4cnn(CCn5cccn5)c4)nc32)cc1 [Compound A10, N-(1-(2-(1H-pyrazol-1-yl)ethyl)-1H-pyrazol-4-yl)-9-(4-ethoxyphenyl)-9H-purin-2-amine]"
9,< 1,"Fc1cc(-n2cnc3cnc(Nc4cnn(C5CCOCC5)c4)nc32)ccc1Cl [Compound A12, 9-(4-chloro-3-fluorophenyl)-N-(1-(tetrahydro-2H-pyran-4-yl)-1H-pyrazol-4-yl)-9H-purine-2-amine]"
10,< 1,"COc1ccc(-n2cnc3cnc(Nc4cnn(C5CCN(C)CC5)c4)nc32)cc1 [Compound A16, 9-(4-methoxyphenyl)-N-(1-(1-methylpiperidin-4-yl)-1H-pyrazol-4-yl)-9H-purin-2-amine]"
11,1 to 5,"COc1ccc(-n2cnc3cnc(Nc4ccn(C)n4)nc32)cc1 [Compound A19, [9-(4-methoxy-phenyl)-9H-purin-2-yl]-(1-methyl-1H-pyrazol-3-yl)-amine]"
12,5 to 10,"COc1ccc(-n2cnc3cnc(Nc4cnn(-c5ccccc5)c4)nc32)cc1 [Compound A20, [9-(4-methoxy-phenyl)-9H-purin-2-yl]-(1-phenyl-1H-pyrazol-4-yl)-amine]"
13,5 to 10,"CCn1cc(Nc2ncc3nc(N)n(-c4ccc(C(=O)NCCO)cc4)c3n2)cn1 [Compound A25, 4-[8-amino-2-(1-ethyl-1H-pyrazol-4-ylamino)-purin-9-yl]-N-(2-hydroxy-ethyl)-benzamide]"
14,1 to 5,"NC(=O)[C@@H]1CC[C@@H](Nc2ncc3ncn(-c4ccc(I)c(F)c4)c3n2)C1 [Compound A31, (1R,3R)-3-[9-(3-fluoro-4-iodo-phenyl)-9H-purin-2-ylamino]-cyclopentanecarboxylic acid amide]"
15,1 to 5,"NC(=O)[C@@H]1CC[C@@H](Nc2ncc3ncn(-c4ccc(I)cc4)c3n2)C1 [Compound A33, (1R,3R)-3-[9-(4-iodo-phenyl)-9H-purin-2-ylamino]-cyclopentanecarboxylic acid amide]"
16,1 to 5,"COCCOc1ccc(-n2cnc3cnc(N[C@@H]4CC[C@@H](C(N)=O)C4)nc32)cc1 [Compound A34, (1R,3R)-3-{9-[4-(2-methoxy-ethoxy)-phenyl]-9H-purin-2-ylamino}-cyclopentanecarboxylic acid amide]"
17,< 1,"COCCn1cc(-c2ccc(-n3cnc4cnc(N[C@@H]5CC[C@@H](C(N)=O)C5)nc43)cc2F)cn1 [Compound A35, (1R,3R)-3-(9-{3-fluoro-4-[1-(2-methoxy-ethyl)-1H-pyrazol-4-yl]-phenyl}-9H-purin-2-ylamino)-cyclopentanecarboxylic acid amide]"
18,5 to 10,"COCCn1cc(-c2ccc(-n3cnc4cnc(N[C@@H]5CCNC5)nc43)cc2)cn1 [Compound A38, (9-{4-[1-(2-methoxy-ethyl)-1H-pyrazol-4-yl]-phenyl}-9H-purin-2-yl)-(R)-pyrrolidin-3-yl-amine]"
